Measured values from paper PMC8107043 (Bioorganic & Medicinal Chemistry Letters, 2021).

How the values were obtained:
SARS-CoV-2 PLpro = SARS-CoV-2 PLpro (Severe acute respiratory syndrome coronavirus 2, UniProt P0DTD1); experiment: Papain-like protease; assay type: biochemical; details: read-out: Percent inhibition against PLpro, 100 µg/mL, mean ± SEM of 3 replicas
[1] = test system: normal human fibroblast cells (HDF); experiment: Cell viability MTT assay; assay type: cell-based; details: in words
SARS-CoV-2 = details: in words; cited from earlier work
SARS-CoV-2 M^pro = SARS-CoV-2 M^pro (Severe acute respiratory syndrome coronavirus 2, UniProt P0DTD1); assay type: biochemical; details: read-out: IC50 against M^pro; dose-response 25-200 µg/mL

**Q.** For O=C(CSc1nnc2c(n1)[nH]c1ccccc12)Nc1cccc(S(=O)(=O)N2CCOCC2)c1 [Compound 8], which inhibition at 100 µg/mL (SARS-CoV-2 PLpro) is on record?
**A.** ≤ 40%

**Q.** With COc1cc(CC(C)NCc2cc(NC(=O)c3ccccn3)cc(C(=O)N(C)C)c2)ccc1O (stereo not drawn) [Compound 12] as the compound, how does the inhibition at 100 µg/mL (SARS-CoV-2 PLpro) read?
**A.** ≤ 40%

**Q.** For N=C(N/N=C/c1ccccc1O)c1nonc1NCNc1nonc1C(=N)N/N=C/c1ccccc1O [Compound 13], which “toxicity on mammalian cells” value [1] is on record?
**A.** no toxicity

**Q.** With CC(C)c1nc(CN(C)C(=O)N[C@H](C(=O)N[C@@H](Cc2ccccc2)C[C@H](O)[C@H](Cc2ccccc2)NC(=O)OCc2cncs2)C(C)C)cs1 [ritonavir] as the compound, how does the “outcome in clinical trial as anti-SARS-CoV-2 inhibitors” value (SARS-CoV-2) read?
**A.** failed in the clinical trial

**Q.** Which “outcome in clinical trial as anti-SARS-CoV-2 inhibitors” value (SARS-CoV-2) does the source give for Cc1cccc(C)c1OCC(=O)N[C@@H](Cc1ccccc1)[C@@H](O)C[C@H](Cc1ccccc1)NC(=O)[C@H](C(C)C)N1CCCNC1=O [lopinavir] here?
**A.** failed in the clinical trial

**Q.** Which inhibition at 100 µg/mL (SARS-CoV-2 PLpro) does the source give for COc1ccc(/C=C\C(=O)NC(=S)Nc2ccc(S(=O)(=O)NC(N)=O)cc2)cc1OC [Compound 9] here?
**A.** ≤ 40%

**Q.** For COc1cc(C(NC2=NC(=O)C(CC(=O)Nc3ccc(C(=O)O)cc3)S2)c2c(O)[nH]c(=O)[nH]c2=O)ccc1O (stereo not drawn) [Compound 7], which IC50 (SARS-CoV-2 M^pro) is on record?
**A.** 0.45 µM

**Q.** And the “toxicity on mammalian cells” value [1]?
**A.** no toxicity

**Q.** With CCOC(=O)C(Cc1c[nH]c2ccccc12)NC(=O)CCC(=O)Nc1ccc(S(N)(=O)=O)cc1 (stereo not drawn) [Compound 2] as the compound, how does the inhibition at 100 µg/mL (SARS-CoV-2 PLpro) read?
**A.** ≤ 40%
